We go through 2 compounds from US11426444B2, “Compositions, methods and uses for treating post-traumatic stress disorder” (priority 2017, dated 2022).

Ends that are not written are not given here.

One experiment deals with Male, Swiss Webster mice. Briefly: Naloxone-precipitated morphine withdrawal, CRH driven rodent model 2 (Example 6). Format: in vivo, mouse. The method, then: A similar study was performed using a CRH antagonist (CP154, 526) in the precipitated withdrawal model.
Male, Swiss Webster mice were treated with seven (7) doses of Morphine 3.2 mg/kg i.p. (d1×5 and d2×2). Animals were then administered a test substance subcutaneously one hour after the last morphine injection with either: (i) nothing (morphine only); (ii) CRH antagonist (CP154, 526) or (iii) TCAP-1 and then an hour after the test substance the animals were administered naloxone i.p at 10 mg/kg, to induce withdrawal.
Two hours after last morphine treatment (i.e. after administration of Naloxone) the mice were immediately placed individually in an observation area and video recorded 20 minutes. The number of jumps (lifting of all feet off the ground) documented for 20 minutes.
(For description on CP154, 526 see for example, CNS Drug Reviews, Vol. 9, No. 1, pp 57-96, Seymour, Patricia A., et al, “The Pharmacology of CP-154,526, A Non-Peptide Antagonist of the CRH1 Receptor: A Review, incorporated herein by reference.)

Another experiment has as its system Swiss Webster mice (SW). Briefly: Restraint stress model, corticosterone (Example 7, FIG. 14 A). It is filed as in vivo, mouse. Particulars: restraint 30-60 minutes on successive days; dosed once at day 1 and day 2; effect in 5 days. The method, then: (§1) The inventors, extended the behavioural activity in a severe restraint model the changes in a stress related biomarker such as corticosterone is depicted in FIG. 14. (See for example de Pablos, R. N. et al (2014), Creating a Rat model of Chronic Variate Stress. Bio-protocol 4(23): e1315.DOI).
(§2) In this model animals, Swiss Webster mice (SW) (FIG. 14 A) and Sprague-Dawley rat (SD) (FIG. 14 B) were restrained in confined spaces for upwards of 30-60 minutes on successive days. TCAP-1 was administered once at day 1 and at day 2 in the 5-day model.

The next experiment concerns Swiss Webster mice. The experiment is described as follows: Naloxone-precipitated morphine withdrawal, CRH driven rodent model 1 (Example 5). Format: in vivo, mouse. The procedure:
In one model, Swiss Webster mice were stressed following chronic opiate administration.
In this Example, TCAP-1 was administered at the graded doses, daily for three days prior to administration of morphine. Morphine was then administered at 3.2 mg/kg i.p. on day 4 (5 times) and 5 (twice), and then one hour the last dose of morphine, naloxone is administered i.p at 10 mg/kg, to induce withdrawal.
One hour after last morphine treatment (i.e. after administration of Naloxone) the mice were immediately placed individually in an observation area and video recorded 20 minutes. The number of jumps (lifting of all feet off the ground) documented for 20 minutes

Experiment [1] relates to Male adult Sprague-Dawley rats. The experiment is described as follows: Modified Open Field Test with noise pollution (Example 1). It is filed as in vivo, rat. The text has this: Male adult Sprague-Dawley rats (˜350 g) treated for 3 months (1 injection/week) with either vehicle (0.9% saline) or TCAP-1 (25 nmoles/kg) were used in Example 1.
Behaviour—Modified Open Field Test
The Open Field Test is a behavioral test paradigm used to investigate anxiety-related behaviours in rodents (Bailey K R and Crawley J N, 2009, in: Buccafusco J J, editor. Source Methods of Behavior Analysis in Neuroscience. 2nd edition. Boca Raton (Fla.): CRC Press/Taylor & Francis; 2009. Chapter 5.). In this experiment, the animals were exposed to high frequency noise pollution to induce a stress response while the animals were in the OFT apparatus. The test was performed one week post last injection of the long-term (3 month) treatment with either vehicle (0.9% saline) or TCAP-1 (25 nmoles/kg). Animals were individually placed in a plexiglass box (50 L×50 W) and digitally recorded and tracked for five (5) minutes. In the centre of the box is a designated section termed the centre zone. Behaviours are then analyzed from videos and recorded for time spent in centre zone, distance travelled in centre zone, and total distance travelled. Moreover, peering behaviour, grooming behaviour, and rearing behaviour were also analyzed (definitions below).
(a) Peering: Digital recordings were analyzed for Peering behaviour. Peering behaviour was defined as the specific notion where animals would stand on their back hind limbs in order to look over the side of the glass wall (i.e, The event where an animal rears specifically to peer over the side of the apparatus). This behaviour can be interpreted as an explorative or anti-fear response.
(b) Grooming: Digital recordings were analyzed for Grooming behaviour. Grooming behaviour was defined as the animals cleaning their face or bodies, i.e., the event where an animal grooms himself (usually his hands and face).
(c) Rearing: Digital recordings were analyzed for Rearing behaviour. Rearing behaviour was defined as an event where animals stand on their hind limbs (i.e., the event where an animal gets on his hind limbs in exploration). This behaviour is interpreted as an explorative behaviour, which is a low anxiety response.
Animals were digitally recorded and tracked for five (5) minutes in the Open Field Test with noise pollution. The noise pollution was large construction noise, intermittent and not at predictable intervals. […] As rearing behaviour is highly associated with anti-anxious behaviour, this corroborates the data indicating TCAP-1 is reducing stress-related behaviour.

In experiment [2] the test system is C57Bl/6J mice. The experiment is described as follows: Chronic social defeat (CSD) model (Example 3). Format: in vivo, mouse. Particulars: subcutaneous once a day days 1-7; for attack latency (time between retreat and evaluating the predator): FIG. 8. From the text:
(§3) The mouse chronic social defeat (“CSD”) model has been accepted as a model of PTSD [Flandreau, et al, 2018]. This model involves exposure of C57Bl/6J mice to chronic stress by aggressor mice (male CD-1 ex-breeders) for a defined period of 15 days. Starting from day 15, mice were further tested in the open field (OF) model.
Experimental Set Up of Mice.
CD-1 mice were housed, one mouse per cage, during the experiments. C57Bl/6J mice were housed in pairs while not subjected to CSD. Mice are acclimated to the animal facility for minimum 5 days before the onset of the study.
CD-1 aggressor mice are determined by using the procedures by Golden et al. (2011). Screening involves three days of selection testing. After the screening and selection of 80 aggressor mice, the chronic social defeat (CSD) paradigm was conducted.
The CSD mouse group were subcutaneously injected once a day with vehicle or TCAP-1 days 1-7.
Under dim lighting a CSD mouse was subjected to direct exposure with a CD-1 aggressor mouse. […] The latency to the first attack was also recorded, and time needed to gain 60 s physical attack time. After the 10 min session, CSD mice were exposed to CD-1 mice through perforated transparent divider for 24 h. If the CD-1 mice are very aggressive (if wounding consistently exceeds veterinary guidelines), the exposure time can be shortened to 5 min or less.
This setup allows direct and continued olfactory, visual, auditory exposure for the rest of the day. On the following day, a CSD mouse is placed in a cage in similar fashion with 10 min direct exposure followed by chronic exposure through divider. Cycle is repeated for 15 days, replacing the […] with a new one every day until day 15. Thereafter, CSD mice remain caged next to the same CD-1 mice without any further attack sessions or rotations for days 16-17.
Attack latency is the period between retreat and confrontation. […] Aggressive contact time reflects the number of direct contacts. FIG. 9 illustrates that administration of TCAP-1, the animal will approach the predator and not retreat.

For experiment [3], the system named is C57Bl/6J mice. The experiment is described as follows: Open field motor activity (OF) after CSD (Example 4). It is filed as in vivo, mouse. The note with it: 15 min open field. The method, then: as §3
Behavioral tests such as Open field motor activity (OF) were also conducted. See the schematic of FIG. 7.
In this model set up the test was conducted 15 days after the last CSD session. The mouse was placed on the Open Field apparatus floor in the center of empty arena for 15 min without exposure to any other stimuli. The following parameters were calculated from the data: distance moved, number of vertical rearing's, velocity and % resting time (no movement activity). Open field activity chambers (Med Associates Inc, St Albans, Vt.; 27×27×20.3 cm) are equipped with IR beams with red light conditions. A mouse is considered to have no movement activity when the mouse is not breaking two adjacent beams consecutively (distance between two adjacent beams is about 1.7 cm).

Another experiment has as its system Sprague-Dawley rat (SD). Briefly: Restraint stress model, corticosterone (Example 7, FIG. 14 B). Format: in vivo. Particulars: amidated human TCAP-1 (SEQ ID NO: 2); restraint 30-60 minutes on successive days; dosed at day 1 and day 2; effect within 3 days.
Excerpt: Amidated mouse TCAP-1 (SEQ ID NO: 1) was suspended in 0.9% saline. [[…], Ambiopharm] for subcutaneous injection in the interscapular region and used in Examples 1, Amidated human TCAP-1 (SEQ ID NO: 2) was suspended in 0.9% saline. [10 nmol/Kg, Ambiopharm] was used in Example 7, for the SD-rat (FIG. 14 B).
as §1, §2

Setting [4] is: 25 nmoles/kg, 1 injection/week for 3 months, 5 min, vs vehicle.

Turning to “Teneurin C-Terminal Associated Peptide-1 (QQLLGTGRVQGYDGYFVLSVEQYLELSDSANNIHFMRQSEI-NH2; not fully specified) [TCAP-1]”, the “number of jumps per 20 minutes after naloxone” value in the experiment on Male, Swiss Webster mice (TCAP-1 250 nmole/Kg subcutaneously one hour after last morphine, versus CP154, 526 at 20 mg/Kg, FIG. 13) is “efficacy”. In addition, in the experiment with Swiss Webster mice (SW), the rise in corticosterone result is “modulated the rise in corticosterone”. In addition, the “jumping activity (number of jumps per 20 minutes) following naloxone” value in the experiment on Swiss Webster mice (graded doses daily for three days prior to morphine 3.2 mg/kg i.p., naloxone 10 mg/kg i.p., FIG. 12) is reported as “dose dependent reduction in jumping activity”. Moreover, the “symptomology of precipitated withdrawal” value in the experiment with Swiss Webster mice (mice stressed following chronic opiate administration) is “efficiently modulated”. In experiment [1] (25 nmoles/kg, 1 injection/week for 3 months, tested one week post last injection, 5 min, vs vehicle), the “time in the centre zone” value was “significantly more time in the centre zone”. In experiment [1] (setting [4]), the “entries into centre zone” value is “more entries into centre zone”, the grooming behaviour entry is recorded as “not found to be significantly different between groups”, the peering behaviour entry is recorded as “not found to be significantly different between groups” and the rearing behaviour result was “significantly increased”. Moreover, the “stress-related behaviour in the Open Field Test with noise pollution” value in experiment [1] (chronic TCAP-1 administration) is recorded as “significantly decreased stress-related behaviour”. Also, the “attack latency (time between retreat and evaluating the predator)” value with C57Bl/6J mice [2] is “attack latency increased”. The “attack latency (time between retreat and evaluating the predator)” value in the experiment with C57Bl/6J mice [2] (listed as TCAp-1) was “reduces the time between retreat and evaluating the predator”. For the same compound, the “aggressive contact time (number of direct contacts)” value with C57Bl/6J mice [2] (FIG. 9) is reported as “increased”. Moreover, the anxiety toward surroundings result in the experiment on C57Bl/6J mice [3] is “reduced anxiety toward their surroundings”. For the same compound, the “number of vertical rearings” value in the experiment on C57Bl/6J mice [3] (FIG. 10) is recorded as “reduced rearing events were observed”. Moreover, the rise in corticosterone result in the experiment on Sprague-Dawley rat (SD) is “modulated the rise in corticosterone”.

With `CCCCN(CC)c1nc(C)nc2c1c(C)cn2-c1c(C)cc(C)cc1C` [CP154, 526, reference compound], the “symptomology of precipitated withdrawal” value with Male, Swiss Webster mice (small molecule CRH antagonist, 20 mg/Kg subcutaneously) is given as “limited success”.
